Assay [1] addresses Peroxisome proliferator-activated receptor gamma/Nuclear receptor coactivator 1 (Homo sapiens, UniProt P37231). In kind it is functional.
In assay [2] the target is Peroxisome proliferator-activated receptor gamma/Nuclear receptor coactivator 3 (Homo sapiens, UniProt P37231). In kind it is functional.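 Further: agonist potency for raising coactivator recruitment to the receptor.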
For assay [3], the target named is Peroxisome proliferator-activated receptor gamma/Nuclear receptor coactivator 2 (Homo sapiens, UniProt P37231). In kind it is functional.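 Further: agonist potency for raising coactivator recruitment to the receptor.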
The subject of a further assay is HeLa. Kind of assay: viability loss in HeLa cells – cell-based, 24 h, cherry-picked samples, cytotoxicity control, dose response (AID 504726).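 Further: potency for cytotoxicity as loss of luminescence signal.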 The format is functional. Conditions: Homo sapiens.
In assay [4] the target is T1, E3 ubiquitin-protein ligase XIAP (Homo sapiens, UniProt P98170). Kind of assay: Counter Screen using XIAP-Bir3 for Chemical Antagonists of Bir1/2 domains of IAP-family anti-apoptotic proteins. [Related pubchem assays (depositor defined):AID1018, AID1449, AID1514, AID1638, AID1749, AID1750, AID488957, AID488963].
T1 sequence (P98170 whole entry): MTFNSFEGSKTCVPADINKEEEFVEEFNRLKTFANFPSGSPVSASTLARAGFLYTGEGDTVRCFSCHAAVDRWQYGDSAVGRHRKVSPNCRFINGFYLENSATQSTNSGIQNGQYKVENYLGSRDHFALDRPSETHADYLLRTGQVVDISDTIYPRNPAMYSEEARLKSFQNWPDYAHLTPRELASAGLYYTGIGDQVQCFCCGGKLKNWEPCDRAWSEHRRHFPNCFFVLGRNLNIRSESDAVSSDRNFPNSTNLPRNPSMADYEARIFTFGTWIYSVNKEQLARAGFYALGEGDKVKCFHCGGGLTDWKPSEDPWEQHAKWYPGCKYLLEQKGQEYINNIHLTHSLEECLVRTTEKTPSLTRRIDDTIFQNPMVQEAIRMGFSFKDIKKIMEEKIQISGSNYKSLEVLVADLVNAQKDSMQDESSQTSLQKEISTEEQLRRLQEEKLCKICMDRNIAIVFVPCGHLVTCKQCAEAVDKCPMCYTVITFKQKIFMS
The target of assay [5] is T1, E3 ubiquitin-protein ligase XIAP. Kind of assay: small molecules displacing peptide from XIAP – biochemical, IAP family, fluorescence polarization (AID 1018). The format is functional. Background: Fluorescence polarisation rises when a labelled molecule tumbles more slowly, as on binding a larger partner.
Assay [6] in a line: M. tuberculosis H37Rv growth inhibitors, H37Rv strain (AID 1626). In kind it is functional.
In assay [7] the target is E3 ubiquitin-protein ligase Mdm2 (Homo sapiens, UniProt Q00987). Kind of assay: MDM2-luc reporter signal enhancers, multi-concentration potency testing, MDM2 ubiquitin-protein ligase inhibitor program, whole-cell format, luminescence detection, 384-well microplate (AID 1394).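 Further: MDM2 E3 inhibitors raise luminescence so EC50 is for signal enhancement.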 In kind it is functional.
E3 ubiquitin-protein ligase Mdm2, sequence (Q00987 whole entry): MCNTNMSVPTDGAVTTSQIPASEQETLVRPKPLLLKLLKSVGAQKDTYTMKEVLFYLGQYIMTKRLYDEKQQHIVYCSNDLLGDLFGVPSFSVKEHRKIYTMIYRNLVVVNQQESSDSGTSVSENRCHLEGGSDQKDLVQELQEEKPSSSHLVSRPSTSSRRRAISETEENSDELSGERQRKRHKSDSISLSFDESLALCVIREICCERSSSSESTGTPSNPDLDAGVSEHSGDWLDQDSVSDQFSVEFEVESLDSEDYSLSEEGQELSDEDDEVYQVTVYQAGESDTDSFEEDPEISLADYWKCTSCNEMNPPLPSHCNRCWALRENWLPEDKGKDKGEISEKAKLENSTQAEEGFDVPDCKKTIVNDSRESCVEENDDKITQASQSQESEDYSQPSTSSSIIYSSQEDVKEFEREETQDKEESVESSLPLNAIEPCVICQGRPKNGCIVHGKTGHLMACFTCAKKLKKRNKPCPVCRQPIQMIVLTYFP
For assay [8], the target named is T2, Heat shock factor protein 1 (Mus musculus, UniProt P38532).
T2 sequence (P38532 whole entry): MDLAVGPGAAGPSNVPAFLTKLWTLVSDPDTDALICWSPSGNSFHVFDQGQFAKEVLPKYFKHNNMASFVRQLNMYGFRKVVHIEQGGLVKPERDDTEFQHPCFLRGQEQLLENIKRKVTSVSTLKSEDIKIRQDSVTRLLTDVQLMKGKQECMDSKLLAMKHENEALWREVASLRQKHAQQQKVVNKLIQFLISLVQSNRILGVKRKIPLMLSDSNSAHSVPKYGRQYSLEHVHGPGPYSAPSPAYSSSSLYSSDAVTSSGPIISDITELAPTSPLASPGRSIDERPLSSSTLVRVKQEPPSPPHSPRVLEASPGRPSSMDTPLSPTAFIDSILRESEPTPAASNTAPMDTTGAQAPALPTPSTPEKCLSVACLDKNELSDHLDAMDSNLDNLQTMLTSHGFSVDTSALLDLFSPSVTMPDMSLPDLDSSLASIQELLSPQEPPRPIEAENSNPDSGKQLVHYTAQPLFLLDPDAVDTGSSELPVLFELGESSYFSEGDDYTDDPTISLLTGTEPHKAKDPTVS
The experiment in a line: enhancement of HSF1-driven luciferase signal – cell-based, NIH3T3, luminescence, dose retest, confirmation (AID 435004).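 Further: stress induced by proteasome inhibitor MG132 added 30 min after compound; luciferase reporter driven by HSF1 response element in NIH3T3 cells; actives raise luminescence as potentiators of the MG132 stress response.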 In kind it is functional.

A further assay has as its target Ion channel NompC (Danio rerio, UniProt Q7T1G6). The experiment in a line: Fluorescence counterscreen assay for TRPML3 agonists: dose response cell-based high-throughput screening assay to identify agonists of the transient receptor potential channel N1 (TRPN1). [Related pubchem assays: 1526, 1424, 1448 ]. The format is functional.
Another assay deals with T3, Mucolipin-3 (Homo sapiens, UniProt Q8TDD5).
T3 sequence (Q8TDD5 whole entry): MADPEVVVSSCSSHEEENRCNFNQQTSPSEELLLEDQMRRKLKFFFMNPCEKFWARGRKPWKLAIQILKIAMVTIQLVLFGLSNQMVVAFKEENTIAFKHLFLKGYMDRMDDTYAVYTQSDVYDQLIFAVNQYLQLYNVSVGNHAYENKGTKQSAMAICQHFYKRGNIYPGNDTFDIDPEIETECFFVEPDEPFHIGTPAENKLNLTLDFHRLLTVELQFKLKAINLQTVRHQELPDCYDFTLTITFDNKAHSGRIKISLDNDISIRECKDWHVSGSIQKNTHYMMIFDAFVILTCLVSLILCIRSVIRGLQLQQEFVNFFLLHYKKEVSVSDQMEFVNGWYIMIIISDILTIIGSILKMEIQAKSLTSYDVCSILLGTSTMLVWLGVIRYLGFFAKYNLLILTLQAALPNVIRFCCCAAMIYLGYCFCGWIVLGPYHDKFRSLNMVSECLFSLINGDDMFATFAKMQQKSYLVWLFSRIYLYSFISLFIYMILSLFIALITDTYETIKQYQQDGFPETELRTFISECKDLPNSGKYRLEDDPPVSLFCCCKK
The experiment in a line: Dose response cell-based high-throughput screening assay for agonists of the transient receptor potential channel ML3 (TRPML3). [Related pubchem assays: 1526, 1424, 1448 ]. The format is functional.

The target of assay [9] is T2, Heat shock factor protein 1. Kind of assay: decrease of HSF1-responsive luciferase luminescence – cell-based, NIH3T3, dose retest, confirmation (AID 2382).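 Further: NIH3T3 fibroblasts with HSF1-driven luciferase reporter stressed by proteasome inhibitor MG132; luminescence from HSF1-driven luciferase expression after 8 hours of MG132 stress.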 The format is functional.
For another assay, the target named is T4, Leucine aminopeptidase (Plasmodium falciparum 3D7, UniProt Q8IL11).
T4 sequence (Q8IL11 whole entry): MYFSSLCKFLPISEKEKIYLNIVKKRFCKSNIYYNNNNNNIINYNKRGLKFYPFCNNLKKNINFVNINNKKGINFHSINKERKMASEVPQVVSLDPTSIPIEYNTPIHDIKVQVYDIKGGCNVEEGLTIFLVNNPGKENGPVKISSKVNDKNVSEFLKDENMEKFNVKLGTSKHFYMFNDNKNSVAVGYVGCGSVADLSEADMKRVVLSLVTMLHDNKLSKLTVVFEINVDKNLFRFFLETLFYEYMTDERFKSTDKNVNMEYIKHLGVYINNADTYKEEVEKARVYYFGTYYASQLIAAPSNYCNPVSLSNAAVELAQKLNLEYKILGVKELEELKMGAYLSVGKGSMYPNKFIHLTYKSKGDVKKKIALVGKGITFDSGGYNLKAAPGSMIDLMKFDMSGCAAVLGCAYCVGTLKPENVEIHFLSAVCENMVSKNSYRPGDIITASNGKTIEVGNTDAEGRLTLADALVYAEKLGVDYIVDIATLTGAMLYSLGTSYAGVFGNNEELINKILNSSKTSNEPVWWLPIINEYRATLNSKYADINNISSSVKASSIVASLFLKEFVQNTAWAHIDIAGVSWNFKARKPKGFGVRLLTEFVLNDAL
The experiment in a line: P. falciparum M17LAP inhibitors, primary screen, biochemical, fluorogenic H-Leu-NHMec substrate, 1536-well (AID 1619). The format is functional.

The target in assay [10] is DNA dC->dU-editing enzyme APOBEC-3A (Homo sapiens, UniProt P31941). The experiment in a line: A3A deaminase inhibition for selectivity – biochemical, dose response (AID 504722). In kind it is functional.
Assay [11] deals with DNA dC->dU-editing enzyme APOBEC-3G (Homo sapiens, UniProt Q9HC16). Kind of assay: Dose Response confirmation of small molecule APOBEC3G DNA Deaminase Inhibitors via a fluorescence-based single-stranded DNA deaminase assay. [Related pubchem assays (depositor defined):AID493012, AID493028]. In kind it is functional.
DNA dC->dU-editing enzyme APOBEC-3G, sequence (Q9HC16 whole entry): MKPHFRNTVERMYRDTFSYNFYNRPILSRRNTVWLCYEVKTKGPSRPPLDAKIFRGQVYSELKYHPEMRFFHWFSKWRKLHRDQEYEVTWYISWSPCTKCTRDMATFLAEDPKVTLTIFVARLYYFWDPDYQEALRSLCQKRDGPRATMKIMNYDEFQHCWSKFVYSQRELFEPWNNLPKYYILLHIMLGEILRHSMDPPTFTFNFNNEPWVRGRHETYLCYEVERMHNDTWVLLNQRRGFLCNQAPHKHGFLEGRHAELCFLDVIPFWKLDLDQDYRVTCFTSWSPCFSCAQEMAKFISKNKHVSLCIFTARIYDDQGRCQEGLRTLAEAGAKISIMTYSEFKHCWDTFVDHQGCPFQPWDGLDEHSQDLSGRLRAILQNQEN
Assay [12] addresses T5, Mannose-6-phosphate isomerase (Homo sapiens, UniProt P34949).
T5 sequence (P34949 whole entry): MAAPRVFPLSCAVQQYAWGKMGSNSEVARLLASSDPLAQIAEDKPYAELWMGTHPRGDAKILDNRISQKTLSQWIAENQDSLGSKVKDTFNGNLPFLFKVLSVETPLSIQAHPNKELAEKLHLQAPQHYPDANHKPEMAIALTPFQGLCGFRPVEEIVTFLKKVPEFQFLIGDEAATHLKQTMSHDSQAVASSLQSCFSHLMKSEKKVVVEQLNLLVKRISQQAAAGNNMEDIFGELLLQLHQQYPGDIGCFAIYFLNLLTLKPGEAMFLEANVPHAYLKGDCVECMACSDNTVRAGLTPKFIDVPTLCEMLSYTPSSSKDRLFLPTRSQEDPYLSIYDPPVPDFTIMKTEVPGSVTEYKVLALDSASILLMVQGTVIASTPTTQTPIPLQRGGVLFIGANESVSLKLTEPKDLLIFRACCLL
The experiment in a line: MPI inhibition at elevated mannose 6-phosphate – biochemical, fluorescence intensity, high mannose 6-phosphate, primary screen (AID 1220).

Assay [13] addresses T6, Endoribonuclease toxin MazF (Escherichia coli K-12, UniProt P0AE70).
T6 sequence (P0AE70 whole entry): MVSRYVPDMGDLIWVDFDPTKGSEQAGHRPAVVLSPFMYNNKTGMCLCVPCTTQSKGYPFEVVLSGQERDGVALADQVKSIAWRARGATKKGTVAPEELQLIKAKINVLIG
Kind of assay: substrate-only fluorescence increase artefacts – biochemical, single-stranded RNase substrate, counter-screen for MazEF activator project, dose response (AID 588502). The format is functional. (In general: Counterscreens check selectivity or assay interference.)

For assay [14], the target named is T6, Endoribonuclease toxin MazF. Kind of assay: activation of MazEF endoribonuclease cleavage – biochemical, fluorescence, single-stranded RNA substrate, uHTS hits, dose response (AID 588481). In kind it is functional.
Assay [15] has as its target Mitogen-activated protein kinase 10 (Homo sapiens, UniProt P53779). The experiment in a line: Dose response biochemical screening assay for inhibitors of c-Jun N-Terminal Kinase 3 (JNK3). [Related pubchem assays: 746 ].
The next assay has as its target Cytochrome P450 2C9 (Homo sapiens, UniProt P11712).
A further assay addresses Large T antigen (Simian virus 40, UniProt P03070). In kind it is functional, Betapolyomavirus macacae.

The source made the active and inactive calls.

Ion channel NompC, sequence (Q7T1G6 whole entry): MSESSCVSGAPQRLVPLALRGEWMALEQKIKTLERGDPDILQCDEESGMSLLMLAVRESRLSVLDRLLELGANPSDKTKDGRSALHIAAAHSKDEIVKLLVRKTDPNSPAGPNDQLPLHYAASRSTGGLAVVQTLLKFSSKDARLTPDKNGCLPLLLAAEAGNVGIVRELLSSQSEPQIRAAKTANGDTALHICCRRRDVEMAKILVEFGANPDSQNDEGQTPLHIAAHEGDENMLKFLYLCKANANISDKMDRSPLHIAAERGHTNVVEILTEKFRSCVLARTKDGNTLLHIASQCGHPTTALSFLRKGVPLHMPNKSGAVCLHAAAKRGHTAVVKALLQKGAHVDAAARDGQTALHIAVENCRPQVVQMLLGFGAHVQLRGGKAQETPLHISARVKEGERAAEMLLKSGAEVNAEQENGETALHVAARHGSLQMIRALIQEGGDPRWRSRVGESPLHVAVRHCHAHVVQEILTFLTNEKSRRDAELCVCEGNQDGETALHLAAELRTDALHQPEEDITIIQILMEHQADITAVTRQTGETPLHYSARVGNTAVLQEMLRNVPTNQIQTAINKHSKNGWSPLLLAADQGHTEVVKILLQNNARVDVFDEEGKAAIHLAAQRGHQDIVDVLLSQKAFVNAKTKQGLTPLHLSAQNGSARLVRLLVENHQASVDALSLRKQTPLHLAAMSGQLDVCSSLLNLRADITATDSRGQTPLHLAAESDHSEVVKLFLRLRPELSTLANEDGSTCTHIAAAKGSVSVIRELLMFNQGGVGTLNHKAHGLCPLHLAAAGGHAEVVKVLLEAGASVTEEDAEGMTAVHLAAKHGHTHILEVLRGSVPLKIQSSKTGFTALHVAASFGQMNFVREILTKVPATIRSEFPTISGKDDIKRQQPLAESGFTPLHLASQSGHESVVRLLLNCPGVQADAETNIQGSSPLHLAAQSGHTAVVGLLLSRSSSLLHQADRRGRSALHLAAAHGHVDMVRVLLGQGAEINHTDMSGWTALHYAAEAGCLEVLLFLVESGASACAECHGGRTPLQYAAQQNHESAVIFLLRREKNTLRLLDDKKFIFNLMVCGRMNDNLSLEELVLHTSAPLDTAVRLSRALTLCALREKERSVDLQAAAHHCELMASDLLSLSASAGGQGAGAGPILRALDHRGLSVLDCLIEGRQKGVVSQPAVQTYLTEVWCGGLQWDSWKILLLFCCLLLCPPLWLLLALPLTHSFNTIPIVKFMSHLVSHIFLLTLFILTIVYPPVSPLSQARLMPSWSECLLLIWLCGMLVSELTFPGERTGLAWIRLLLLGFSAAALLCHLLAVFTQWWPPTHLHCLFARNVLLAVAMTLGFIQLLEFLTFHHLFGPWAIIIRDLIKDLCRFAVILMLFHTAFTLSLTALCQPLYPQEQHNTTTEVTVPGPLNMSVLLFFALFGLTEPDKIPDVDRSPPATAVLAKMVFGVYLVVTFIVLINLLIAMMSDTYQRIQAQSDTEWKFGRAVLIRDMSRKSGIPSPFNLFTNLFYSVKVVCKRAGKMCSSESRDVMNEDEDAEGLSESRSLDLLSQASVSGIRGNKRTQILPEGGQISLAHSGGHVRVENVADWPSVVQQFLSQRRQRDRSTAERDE
Peroxisome proliferator-activated receptor gamma/Nuclear receptor coactivator 1, sequence (P37231 whole entry): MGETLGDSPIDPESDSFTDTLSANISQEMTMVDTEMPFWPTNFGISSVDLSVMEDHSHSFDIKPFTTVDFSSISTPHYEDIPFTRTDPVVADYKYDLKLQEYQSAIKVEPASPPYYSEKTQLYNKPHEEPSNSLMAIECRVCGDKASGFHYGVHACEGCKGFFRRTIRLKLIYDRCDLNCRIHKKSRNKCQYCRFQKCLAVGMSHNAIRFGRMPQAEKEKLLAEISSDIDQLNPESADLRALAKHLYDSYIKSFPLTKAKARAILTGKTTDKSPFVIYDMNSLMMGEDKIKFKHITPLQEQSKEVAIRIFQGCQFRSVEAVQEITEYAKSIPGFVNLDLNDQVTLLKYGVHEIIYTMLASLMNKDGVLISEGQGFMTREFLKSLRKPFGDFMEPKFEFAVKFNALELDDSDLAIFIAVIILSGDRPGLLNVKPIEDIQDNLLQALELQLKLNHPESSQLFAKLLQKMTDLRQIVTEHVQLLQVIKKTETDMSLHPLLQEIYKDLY
Peroxisome proliferator-activated receptor gamma/Nuclear receptor coactivator 1, sequence (Q15788 whole entry, further chain): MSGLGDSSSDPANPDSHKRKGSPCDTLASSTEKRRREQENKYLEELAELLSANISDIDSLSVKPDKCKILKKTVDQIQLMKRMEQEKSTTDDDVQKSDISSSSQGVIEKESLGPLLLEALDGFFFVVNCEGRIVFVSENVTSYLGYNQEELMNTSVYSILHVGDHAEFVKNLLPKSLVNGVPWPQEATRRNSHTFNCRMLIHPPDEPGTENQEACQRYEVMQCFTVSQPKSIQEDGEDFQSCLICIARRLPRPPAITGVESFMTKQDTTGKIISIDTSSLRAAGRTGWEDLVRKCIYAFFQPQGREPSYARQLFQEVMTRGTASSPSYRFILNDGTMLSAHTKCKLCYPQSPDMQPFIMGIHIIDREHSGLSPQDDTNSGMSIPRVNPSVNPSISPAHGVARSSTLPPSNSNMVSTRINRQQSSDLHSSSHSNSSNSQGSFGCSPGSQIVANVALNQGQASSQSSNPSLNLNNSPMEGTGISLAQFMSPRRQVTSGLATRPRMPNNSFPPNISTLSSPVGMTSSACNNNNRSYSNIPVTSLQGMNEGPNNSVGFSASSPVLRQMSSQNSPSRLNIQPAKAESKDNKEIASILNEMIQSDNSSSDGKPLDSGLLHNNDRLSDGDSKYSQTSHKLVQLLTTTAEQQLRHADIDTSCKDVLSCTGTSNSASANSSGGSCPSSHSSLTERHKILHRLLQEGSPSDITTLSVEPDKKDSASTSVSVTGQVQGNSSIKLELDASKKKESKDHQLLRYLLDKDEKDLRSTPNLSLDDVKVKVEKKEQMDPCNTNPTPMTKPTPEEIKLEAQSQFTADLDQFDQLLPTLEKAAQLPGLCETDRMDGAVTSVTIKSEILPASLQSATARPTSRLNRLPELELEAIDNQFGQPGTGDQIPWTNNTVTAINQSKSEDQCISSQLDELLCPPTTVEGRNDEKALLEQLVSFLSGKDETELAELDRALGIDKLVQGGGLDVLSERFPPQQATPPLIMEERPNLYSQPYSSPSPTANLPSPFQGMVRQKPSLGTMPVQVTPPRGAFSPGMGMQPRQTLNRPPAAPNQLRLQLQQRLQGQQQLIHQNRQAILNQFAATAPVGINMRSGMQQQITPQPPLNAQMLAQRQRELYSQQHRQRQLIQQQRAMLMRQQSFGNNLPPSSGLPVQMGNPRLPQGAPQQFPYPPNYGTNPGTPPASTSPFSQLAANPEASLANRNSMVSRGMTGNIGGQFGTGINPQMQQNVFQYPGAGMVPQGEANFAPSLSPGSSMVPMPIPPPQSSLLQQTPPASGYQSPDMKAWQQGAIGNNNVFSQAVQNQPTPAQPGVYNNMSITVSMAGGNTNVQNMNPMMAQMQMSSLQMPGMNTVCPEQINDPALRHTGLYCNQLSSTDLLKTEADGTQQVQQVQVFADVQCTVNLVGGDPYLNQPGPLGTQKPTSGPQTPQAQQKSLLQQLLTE

In the case of `CC(C)[C@H](NC(=O)OC(C)(C)C)c1nnc(SCc2cccc(F)c2)o1`, the values for the EC50 in [1], in assay [2] and in [3] were 8.46 µM (active), 16.9 µM (not active) and 24 µM (not active), respectively.

`CCOC(=O)c1c(C)n(C)c2ccc(OCCN(C)C)cc12`: the AC50 in the assay with HeLa was > 350 µM (inactive).

For the compound `CCOC(=O)C1CCN(CCC(=O)Nc2ccc(C)c(C)c2)CC1`, the EC50 in assay [1], in [2] and in assay [3] was > 79.4 µM (not active) each time.

Turning to `CCSc1nnc(NC(=O)c2cc(-c3ccc(C)c(C)c3O)[nH]n2)s1`, the IC50 in [4] is > 100 µM (inactive); in [5], > 100 µM (not active).

Consider `O=C(Nc1ccc(-c2csnn2)cc1)C1CC1`, for which the IC50 in assay [6] was > 100 µM (active). Also, the EC50 in assay [7] is recorded as 3.55 µM (not active).

In the case of `Nc1cnn(Cc2ccc(F)cc2)c1`, the EC50 in [8] was > 260 µM (inactive). Moreover, the IC50 in assay [6] was > 100 µM (active).

Turning to `CC1CC(C)CN(C(=O)c2ccc3ncsc3c2)C1` (stereo not drawn), the AC50 in the assay on HeLa is 95.4 µM (active).

For `CCC1CCCCN1S(=O)(=O)c1ccc(S(=O)(=O)N(Cc2cccs2)C2CC2)cc1` (stereo not drawn), the EC50 on Ion channel NompC was > 29.9 µM (not active); on Mucolipin-3 it was 1.16 µM (active).

In the case of `CC(SCc1ccccc1)C(=O)NCc1ccccn1` (stereo not drawn), the IC50 was > 100 µM (inactive) in [4] and > 100 µM (not active) in assay [5].

As to `Cc1ccc(S(=O)(=O)N2CCC(C)CC2)cc1[N+](=O)[O-]`, the EC50 is > 29.9 µM (not active) at Ion channel NompC, > 195 µM (not active) in [9] and 3.51 µM (active) on Mucolipin-3.

As for `COc1ccc(C(=O)Nc2ccc(S(=O)(=O)N3CCCCC3C)cc2)c(OC)c1OC` (stereo not drawn), the EC50 at Ion channel NompC is > 29.9 µM (not active); at Mucolipin-3, 1.78 µM (active).

For `Cc1cc(NC(=O)Cc2csc(-c3ccccc3)n2)ccc1Br`, the IC50 was > 100 µM (inactive) in [4] and > 100 µM (not active) in [5].

For the compound `CC(Sc1nc2ccccc2s1)C(=O)Nc1nnc(C(C)C)s1` (stereo not drawn), the 50% inhibitory concentration (IC50) at Leucine aminopeptidase was 2.84 µM (active). The EC50 in assay [9] is > 195 µM (not active). In the assay with HeLa, the AC50 is > 350 µM (inactive).

`COc1cccc2cc(-c3n[nH]c(=S)n3C)oc12`: the values for the IC50 in [10] and in assay [11] were > 100 µM (inactive) and 2.18 µM (active), respectively.

Turning to `CCN1C(=O)C(=Cc2cc(C)n(C3CC3)c2C)C(=O)N(CC)C1=S`, the IC50 in assay [12] is > 50 µM (not active). Further, the EC50 in assay [13] is > 99 µM (inactive); in [14], 44.4 µM (inactive).

As for `CC(C)N(C(=O)Nc1ccc2nccnc2c1)C(C)C`, the IC50 in assay [12] was > 50 µM (not active).

In the case of `COc1ccccc1OCC(=O)Nc1cc(S(=O)(=O)N2CCCCC2)ccc1N1CCCCC1`, the EC50 in assay [7] is recorded as 6.4 µM (not active).

On to `Oc1[nH]c2ccccc2c1/C=N/c1nccs1`, for which, in [15], the IC50 is recorded as 46.6 µM (not active). Moreover, the AC50 on Cytochrome P450 2C9 is 25.1 µM (inconclusive).

Take `Cn1ncc([N+](=O)[O-])c1C(=O)N/N=C/c1ccc(F)cc1`: the 50% effective concentration (EC50) in assay [1], in assay [2] and in [3] was > 79.4 µM (not active) each time.

Consider `COc1cc(/C=N/n2c(S)nnc2-c2[nH]nc3c2CCC3)ccc1O`, for which the IC50 was > 100 µM (inactive) in assay [10], 1.56 µM (active) in assay [11] and 7.5 µM (active) on Large T antigen.

A word on the EC50: it is the concentration at which the effect is half-maximal. As usually defined, the AC50 is the concentration giving half of the maximal activity seen. The term IC50 denotes the concentration at which inhibition is half-maximal.

The values are drawn from ChEMBL document CHEMBL1201862, “PubChem BioAssay data set” (2004).
